Experimental findings from patent US4275164A, “Process and nutrient medium for growing microorganism” (priority 1979, dated 1981) are described below.

The test system of test [1] is creatinine iminohydrolase. As to the kind of experiment: Creatinine iminohydrolase activity, Small-scale Enzyme Production (Procedure 2; GDH assay). Format: cell-based, ATCC 31546 (tentatively Flavobacterium filamentosum). To be noted: for creatinine iminohydrolase yield of microbial cells (in words) / growth of the culture and enzyme production (in words): carbon source; for growth of the culture and enzyme production (in words): Example 2; for Optimum Concentration (carbon source): concentration which produced the highest creatinine iminohydrolase activity, Table II; for optimum concentration: fumaric acid as carbon source and creatinine varied simultaneously, Example 3. The procedure:
(§1) A fresh sample of culture grown for two days on Medium No. 1 slants as described in Procedure 1 above was obtained. From this slant, a loopful of culture was inoculated into 25 ml of a microbial growth medium of the type employed in the present invention contained in a 250 ml Erlenmeyer flask. The microbial growth medium employed consisted of Tryp-Soy Broth, referred to hereinabove. Following inoculation of the culture into the Erlenmeyer flask, the flask was shaken at 200 rpm at 30° C. for eight hours to produce good cellular growth without lysis of the microbial cells. Thereafter, a sample of the contents of the flask was microscopically inspected for culture purity and then aseptically centrifuged at 15,000 xg in a refrigerated centrifuge (available from DuPont Instruments, Newton, CT) for 15 minutes to separate the cells from the Tryp-Soy Broth. The supernatant containing the Tryp-Soy Broth was discarded, and the solid material containing the precipitated microbial cells was then re-suspendedin a volume of sterile distilled water equal to that present before centrifugation. 2 ml of this latter suspension was then used as an inoculum for a 250 ml Erlenmeyer flask containing 25 ml of a production medium to obtain further cell growth and to promote enzyme production by the microorganism. The specific composition of the production medium was varied as described in the following examples. However, in each case, once the microorganism was transferred as a 2-ml inoculum to the flask containing the particular production medium of interest, the flask was shaken at 30° C., 200 rpm for 10 hours. Thereafter, samples of the culture were withdrawn, diluted and dry-cell weight was determined. In addition, a 2.5 ml aliquot of the culture was centrifuged at 15,000 xg in a refrigerated centrifuge to separate the cells from the production medium. The supernatant containing the production medium was discarded. The precipitated cells were disrupted as in Procedure 4 below, and enzyme activity was assayed as described in Procedure 5 below.
(§2) 0.2 ml of an enzyme solution and 0.4 ml of cell suspension were added to 1.4 ml of 0.05 M tris(hydroxymethyl)aminomethane (tris) buffer, pH 8.5, and 10^-3 M (ethylenedinitrilo)tetraacetic acid, dipotassium salt (K2 EDTA). The aforementioned enzyme solution contained per ml of deionized water: 2.5 mg lysozyme, 1 mg bovine pancreatic deoxyribonuclease, and 1 mg bovine pancreatic ribonuclease. The amount of cell suspension was adjusted to give a final optical density of about 1.0, and the final volume was made to 2.0 ml with tris buffer. The suspension was shaken in a water bath at 37° C. for 20 minutes. The cell debris was removed by centrifugation at 27,000 xg in a refrigerated centrifuge, and the supernatant was assayed for enzyme activity as described in Procedure 5 below.
To determine the creatinine iminohydrolase activity described in the Examples, a L-glutamic dehydrogenase, "GDH", assay method was employed. In the GDH assay method, production of ammonia from creatinine, which represents the activity of a creatinine iminohydrolase enzyme preparation,is measured using NADPH (nicotinamide-adenine dinucleotride phosphate, reduced form) in a GDH-catalyzed reaction as follows:
Creatinine is hydrolyzed to ammonia via the unknown activity of a creatinine iminohydrolase sample, and the resultant ammonia reacts with the reagent α-ketoglutaric acid in the presence of GDH as catalyst to produce glutamic acid. The latter reaction catalyzed by GDH uses the NADPH oxidation reaction (NADPH→NADP), the disappearance of the NADPH absorption peak at 340 nm providing the spectroscopically detectable means for monitoring the assay. That is, the rate of NADPH disappearance measures the rate of glutamic acid production which, in turn, measures the rate of ammonia production.

The test system of test [2] is microorganism ATCC 31546. As to the kind of experiment: Dry cell weight, Small-scale Enzyme Production (Procedure 2). Format: cell-based, tentatively Flavobacterium filamentosum (ATCC 31546). To be noted: Procedure No. 2; glucose 1.0 wt% added, or control 0.0 wt%. The procedure:
as §1, with “The specific composition of the production medium was varied as described in the following examples. However, in each case, once the microorganism was transferred as a 2-ml inoculum to the flask containing the particular production medium of interest, the flask was shaken at 30° C., 200 rpm for 10 hours.” left out, “In addition, a 2.5 ml aliquot of the culture was centrifuged at 15,000 xg in a refrigerated centrifuge to separate the cells from the production medium. The supernatant containing the production medium was discarded. The precipitated cells were disrupted as in Procedure 4 below, and enzyme activity was assayed as described in Procedure 5 below.” left out

The subject of test [3] is microorganism ATCC 31546. As to the kind of experiment: Dry cell weight / growth, Large-scale Enzyme Production (Procedure 3). The class given is cell-based, tentatively Flavobacterium filamentosum (ATCC 31546). To be noted: Procedure No. 3; glucose 1.0 wt% added, or control 0.0 wt%.
Protocol: Large-scale enzyme production was carried out using a 150-liter fermentor as follows:
First, following the same steps described in Procedure 2 above, a fresh sample of the microorganism ATCC 31546 culture which had been grown for two days on Medium No. 1 slants was transferred into 25 ml of microbial growth medium contained in a 250-ml Erlenmeyer flask. The microbial growth medium was the same as that described in Procedure 2 above. The first stage of inoculum growth in the microbial growth medium was carried out by shaking the flask at 200 rpm, 25° C. for 12 hours. A sample of the contents of the flask was thereafter microscopically inspected for culture purity. Thereafter, in the second stage of inoculum growth in the microbial growth medium, the contents of two 250-ml Erlenmeyer flasks containing first-stage culture were transferred aseptically to a 14-liter fermentor containing 10 liters of sterilized microbial growth medium having the composition described in Procedure 2 above and also containing 0.01 wt% of a polyglycol anti-foam agent sold under the tradename Polyglycol P-2000 by Dow Chemicals, Midland, MI. […] At this point, a sufficient quantity of cells was available to form an inoculum for the 150-liter fermentor. […] Dissolved oxygen concentration and pH were monitored continuously throughout the 12-hour period. […]
For test [4], the system named is creatinine iminohydrolase. As to the kind of experiment: Creatinine iminohydrolase activity, Large-scale Enzyme Production (Procedure 3; GDH assay). The class given is cell-based, ATCC 31546 (tentatively Flavobacterium filamentosum). To be noted: Procedure No. 3; glucose 1.0 wt% added, or control 0.0 wt%. The procedure: as §2
To determine the creatinine iminohydrolase activity described in the Examples, a L-glutamic dehydrogenase, "GDH", assay method was employed. In the GDH assay method, production of ammonia from creatinine, which represents the activity of a creatinine iminohydrolase enzyme preparation,is measured using NADPH (nicotinamide-adenine dinucleotride phosphate, reduced form) in a GDH-catalyzed reaction as follows: […]

Where [5] appears, read: carbon source at optimum concentration, control 1.0 wt% fumaric acid.

The structures appear in SMILES notation.

Consider `CC(=O)O` [Acetic Acid], for which, in test [1], the “creatinine iminohydrolase yield of microbial cells (in words)” value (“creatinine iminohydrolase yield” for short) is given as “yielding only small amounts of creatinine iminohydrolase”; the “growth of the culture and enzyme production (in words)” value (“growth” for short) is given as “did not support the growth of the culture or produce a detectable amount of enzyme”; the “Optimum Concentration (carbon source)” value was found to be 0.1 Wt. %.
`C[C@H](N)C(=O)O` [Alanine]: in test [1] (setting [5]), the “Creatinine Iminohydrolase Activity % of Control” value was 35 % of Control. Also, the “Optimum Concentration (carbon source)” value in test [1] amounted to 1.0 Wt. %.
For the molecule `N[C@@H](CC(=O)O)C(=O)O` [Aspartic Acid], in test [1], the “creatinine iminohydrolase yield” value is on record as “yielding only small amounts of creatinine iminohydrolase”; the “growth” value is “the culture grew well but these sources repressed enzyme synthesis”; the “Optimum Concentration (carbon source)” value was 1.0 Wt. %.
As for `O=C(O)CC(O)(CC(=O)O)C(=O)O` [Citric Acid], the “Creatinine Iminohydrolase Activity % of Control” value in test [1] (setting [5]) is given as 71 % of Control. In test [1], the “growth” value is “acceptable levels of microbial growth and enzyme production”; the “Optimum Concentration (carbon source)” value is listed as 1.0 Wt. %.
`CN1CC(=O)NC1=N` [Creatinine] showed an optimum concentration in test [1] of 0.5%.
In the case of `O=C(O)/C=C/C(=O)O` [Fumaric Acid, Fumaric acid], in test [1] (setting [5]), the “Creatinine Iminohydrolase Activity % of Control” value is recorded as 100 % of Control. Moreover, in test [1], the “growth” value was “good enzyme production and good growth of the microorganism”; the “Optimum Concentration (carbon source)” value turned out to be 1.0 Wt. %; the optimum concentration came out at 1.0%.
In the case of `OC[C@H]1OC(O)[C@H](O)[C@@H](O)[C@@H]1O` (stereo partly drawn) [Glucose], the “Dry Cell Weight” value with microorganism ATCC 31546 [2] worked out at 3.31 g/L; in the test with microorganism ATCC 31546 [3] it was 3.92 g/L. In addition, the “Creatinine Iminohydrolase Activity % of Control” value in test [1] (Procedure No. 2, glucose 1.0 wt% added, or control 0.0 wt%) is 135 % of Control; in test [1] (setting [5]) it was 51 % of Control; in test [4], 134 % of Control. Besides, the “growth” value in test [1] is “acceptable levels of microbial growth and enzyme production”. For the same molecule, the “Optimum Concentration (carbon source)” value in test [1] came to 1.0 Wt. %. Further, the “Creatinine Iminohydrolase Activity” value in test [4] amounted to 720 U/liter.
`N[C@@H](CCC(=O)O)C(=O)O` [Glutamic Acid]: in test [1], the “creatinine iminohydrolase yield” value is on record as “yielding only small amounts of creatinine iminohydrolase”; the “growth” value is “the culture grew well but these sources repressed enzyme synthesis”; the “Optimum Concentration (carbon source)” value is on record as 1.0 Wt. %.
Taken in the same sequence, the figures for `OCC(O)CO` [Glycerol] were “yielding only small amounts of creatinine iminohydrolase”, “did not support the growth of the culture or produce a detectable amount of enzyme” and 0.5 Wt. %.
Taken in the same sequence, the figures for `NCC(=O)O` [Glycine] were “yielding only small amounts of creatinine iminohydrolase”, “did not support the growth of the culture or produce a detectable amount of enzyme” and 0.5 Wt. %.
With `O=C(O)CCC(=O)C(=O)O` [Ketoglutaric Acid, α-Ketoglutaric acid], the “Creatinine Iminohydrolase Activity % of Control” value in test [1] (setting [5]) is recorded as 205 % of Control. Also, in test [1], the “growth” value is “good growth of the microorganism and produced more than twice as much enzyme as did the fumaric acid control”; the “Optimum Concentration (carbon source)” value was 1.0 Wt. %.
Take `CC(O)C(=O)O` (stereo not drawn) [Lactic Acid]: the “Creatinine Iminohydrolase Activity % of Control” value in test [1] (setting [5]) is reported as 8 % of Control. Also, in test [1], the “growth” value was “acceptable levels of microbial growth and enzyme production”; the “Optimum Concentration (carbon source)” value was 0.5 Wt. %.
Regarding `O=C(O)CC(O)C(=O)O` (stereo not drawn) [Malic Acid], the “Creatinine Iminohydrolase Activity % of Control” value in test [1] (setting [5]) is 100 % of Control. Also, in test [1], the “growth” value is “acceptable levels of microbial growth and enzyme production”; the “Optimum Concentration (carbon source)” value came to 1.0 Wt. %.
Consider `CC(=O)C(=O)O` [Pyruvic Acid], for which, in test [1] (setting [5]), the “Creatinine Iminohydrolase Activity % of Control” value is 105 % of Control. Also, in test [1], the “growth” value is “supported good enzyme production although somewhat lower growth of the microorganism was obtained”; the “Optimum Concentration (carbon source)” value came out at 0.5 Wt. %.
As to `O=C(O)CCC(=O)O` [Succinic Acid], in test [1] (setting [5]), the “Creatinine Iminohydrolase Activity % of Control” value is listed as 49 % of Control. In test [1], the “growth” value was “acceptable levels of microbial growth and enzyme production”; the “Optimum Concentration (carbon source)” value came to 1.0 Wt. %.
For the molecule `OC[C@H]1O[C@@](CO)(O[C@H]2O[C@H](CO)[C@@H](O)[C@H](O)[C@H]2O)[C@@H](O)[C@@H]1O` [Sucrose], in test [1], the “creatinine iminohydrolase yield” value was “yielding only small amounts of creatinine iminohydrolase”; the “growth” value was “did not support the growth of the culture or produce a detectable amount of enzyme”; the “Optimum Concentration (carbon source)” value is on record as 0.5 Wt. %.
